Values quoted from earlier work in US11173140B2, “Dosing regimens of PKC activators” (COGNITIVE RESEARCH ENTERPRISES, INC., priority 2015, dated 2021).
Where two headings read alike, the source gives them in different places.

Assays:
PKC [1] = settings: cited from earlier work
PKC [2] = settings: cited from earlier work; remark: listed apart in the source
PKC [3] = settings: competition with [3H] phorbol dibutyrate; read-out: Ki, binding to PKC; cited from earlier work
NCI 60 cell line screen = settings: NCI 60 cell lines; cited from earlier work
[4] = A-ring bryologs, read-out: affinity for PKC

CCCCCCCC(=O)O[C@H]1/C(=C/C(=O)OC)C[C@H]2C[C@H](CO)OC(=O)C[C@H](O)C[C@@H]3CCC[C@H](C[C@@H]4CCO[C@H](/C=C/C(C)(C)[C@]1(O)O2)O4)O3 [Analog 1]
affinity for PKC (in words) (PKC [1]): highest affinity | Ki (PKC [1]; read-out: PKC Affin): 0.25 nM

CCC1CC1CC1CC1CC1CC1CC1CC1CC1CC1CC1CC1CCC(=O)OC (stereo not shown) [DHA-CP6, cyclopropanated docosahexaenoic acid methyl ester]
effective concentration (PKC [2]): 10 nM

CC1=C[C@]23C(=O)[C@@H](C=C(COC(=O)c4ccccc4)[C@@H](O)[C@]2(O)[C@H]1OC(=O)c1ccccc1)[C@H]1[C@@H](C[C@H]3C)C1(C)C [Ingenol 3,20-dibenzoate]
Ki (PKC [3]): 240 nM

CC1=CC[C@H](C)C(C)(C)[C@@H]1/C=C/C(C)=C/CC[C@@]1(CO)[C@H](CCCO)/C(=C(/C)C=O)CC[C@]1(C)O [Iripallidal]
GI50 (concentration required to inhibit growth by 50%) (NCI 60 cell line screen): micromolar to nanomolar range

CCCCCCCC(=O)OC1C(=CC(=O)OC)CC2CC(CO)OC(=O)CC(O)CCOC(C(C)(C)C)CC3CCOC(C=CC(C)(C)C1(O)O2)O3 (stereo not shown) [bryolog 3]
Ki (PKC [1]; [4]): 6.5 nM

CCCCCCCC(=O)OC1C(=CC(=O)OC)CC2CC(CO)OC(=O)CC(O)CCOC(c3ccccc3)CC3CCOC(C=CC(C)(C)C1(O)O2)O3 (stereo not shown) [bryolog 4]
Ki (PKC [1]; [4]): 2.3 nM
